According to publication PMC8318231, “Rate-of-Kill (RoK) assays to triage large compound sets for Chagas disease drug discovery: Application to GSK Chagas Box” (PLoS Neglected Tropical Diseases, 2021):

System: T. cruzi intracellular amastigotes in H9c2 cells
Test: Rate-of-Kill (RoK) high-content imaging assay, amastigotes per cell (AM/CELL) and curve descriptors
Type: cell-based, Trypanosoma cruzi
Parameters: key to ME_24h / ME_48h / ME_72h: % reduction in parasite burden (cidal response); t50pct_MCC50 / t50pct_Cmax: unit not given here
Details: for ME_24h: 24h; for ME_48h: 48h; for ME_72h: 72h; for tlag_Cmax / t50pct_Cmax / t50%_Cmax: at Cmax; for ME_24h (%): maximum effect at 24 h; for ME_24h (%) / ME_48h (%) / ME_72h (%): RoK assay; for ME_48h (%): maximum effect at 48 h; for ME_72h (%): maximum effect at 72 h; for ME 24h (maximum effect at 24 hours, intracellular amastigotes): maximum percentage of parasite burden reduction reached by any concentration
Summary of the method: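 H9c2 cardiomyocytes infected with T. cruzi trypomastigotes (MOI 8, 18 h), then compounds tested at 5 μM single shot or 11-point 1/3 dilution from 50 μM. DRAQ5-stained nuclei imaged over a time course. Amastigotes per cell normalised to infected cells at 4 h (0%) and non-infected cells (100%).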

| SMILES | ME_24h (figure 5) | ME_48h (figure 5) | ME_72h (figure 5) | MCCE (RoK curve descriptor) [µM] | AM/CELL NORM (Time 4, sheet figure 4 A) | AM/CELL NORM (Time 24, sheet figure 4 A) | AM/CELL NORM (Time 48, sheet figure 4 A) | AM/CELL NORM (Time 72, sheet figure 4 A) | tlag_Cmax [h] | t50pct_Cmax (figure 5) | tlag_Cmax (figure 5) | t50pct_MCC50 (at MCC50, figure 5) | tlag_MCC50 (at MCC50, figure 5) | MCC50 (figure 5) [µM] | MCCE (figure 5) | ME_24h (%) | ME_48h (%) | ME_72h (%) | ME 24h (maximum effect at 24 hours, intracellular amastigotes) [%] | MCC50 (RoK curve descriptor) [µM] | other results |
| --- | --- | --- | --- | --- | --- | --- | --- | --- | --- | --- | --- | --- | --- | --- | --- | --- | --- | --- | --- | --- | --- |
| Cc1cccnc1CN1CCN(CCCOc2ccc(-c3ccc(C(N)=O)cc3)cc2)CC1 [TCMDC-143291] | -149.164 | -418.951 | -403.993 | 16.7 | 9.834 | -41.6178 | -122.335 | -107.466 | 48.0 | 72 | 48 | 72 | 72 | 50 | 16.6667 | -149.2 | -419.0 | -404.0 | -41.6178 | – | – |
| COc1ccc(C(C)N(C)c2ncc3c(N)nc(N)nc3n2)cc1F (centres unmarked) [TCMDC-143298] | 43.2682 | 65.4547 | 72.4604 | 0.16 | 12.1557 | 34.3534 | 59.1852 | 72.1771 | 4.0 | 64 | 4 | 56 | 4 | 1.44 | 0.16 | 43.3 | 65.5 | 72.5 | 45.8485 | 1.4 | MCC and MCCE values (in words): low MCC and MCCE values; ME (maximum effect) in RoK assay (in words): high ME value; tlag times: 4 h; t50%_Cmax: 64.0 h; t50%_MCC50 (at MCC50): 56.0 h; tlag_MCC50 (at MCC50): 4.0 h |
| O=C(NCc1ccncc1)c1ccccc1N1CCCN(C(=O)Cc2ccc(F)c(F)c2)CC1.O=C(O)C(F)(F)F.O=C(O)C(F)(F)F [TCMDC-143300] | -279.048 | -72.5657 | 30.5548 | 0.07 | -9.816 | -279.048 | -94.5412 | 9.95 | 24.0 | 72 | 24 | 72 | 72 | 50 | 0.06859 | -279.1 | -72.6 | 30.6 | -279.048 | – | – |
| O=C(O)C(F)(F)F.O=c1ccc2ccc(F)c3c2n1C[C@H]3CN1CCC(NCc2cc3ccccc3o2)CC1 [TCMDC-143301] | 26.9481 | 43.1407 | 49.4796 | 0.2 | 0.9981 | 26.9481 | 43.1407 | 49.4796 | 4.0 | 72 | 4 | 72 | 72 | 50 | 0.2058 | 27.0 | 43.1 | 49.5 | 26.9481 | – | – |
| CS(=O)(=O)NC1CCC(Oc2cc3cnccc3cc2-c2ccsc2)CC1.O=C(O)C(F)(F)F (centres unmarked) [TCMDC-143302] | 1.036 | 27.0388 | 21.5908 | 0.6 | -2.284 | 1.036 | 27.0388 | -4.309 | 4.0 | 72 | 4 | 72 | 72 | 50 | 0.6173 | 1.0 | 27.0 | 21.6 | 1.036 | – | – |
| Cc1c(C(=O)NCCCCn2ccnc2)oc2c(C)cccc12 [TCMDC-143304] | -97.6451 | -43.6144 | 81.5916 | 0.6 | -4.678 | -97.6451 | -43.6144 | 60.7007 | 24.0 | 72 | 24 | 72 | 48 | – | 0.6173 | -97.7 | -43.6 | 81.6 | -97.6451 | 1.9 | t50%_Cmax: 72.0 h; t50%_MCC50 (at MCC50): 72.0 h; tlag_MCC50 (at MCC50): 48.0 h; MCC50 (figure 5, in µM): 1.852 |
| COc1ccc(C(=O)Nc2cc(C(F)(F)F)ccc2N2CCOCC2)c(OC)c1 [TCMDC-143310] | 64.6908 | 80.1309 | 94.1302 | 0.6 | -57.2428 | 64.6908 | 80.1309 | 94.1302 | 4.0 | 24 | 4 | 72 | 4 | – | 0.6173 | 64.7 | 80.1 | 94.1 | 64.6908 | 1.9 | t50%_Cmax: 24.0 h; t50%_MCC50 (at MCC50): 72.0 h; tlag_MCC50 (at MCC50): 4.0 h; MCC50 (figure 5, in µM): 1.852 |
| FC(F)(F)c1cc(C2CCCN(Cc3c[nH]c4ccccc34)C2)nc2ncnn12.O=C(O)C(O)C(O)C(=O)O (centres unmarked) [TCMDC-143311] | 20.357 | 59.0796 | 83.5796 | 16.7 | -4.224 | 20.357 | 59.0796 | 83.5796 | 4.0 | 48 | 4 | 48 | 4 | 50 | 16.6667 | 20.4 | 59.1 | 83.6 | 20.357 | 50.0 | t50%_Cmax: 48.0 h; t50%_MCC50 (at MCC50): 48.0 h; tlag_MCC50 (at MCC50): 4.0 h |
| COc1ccc(NS(=O)(=O)c2cc(NC(=O)Cc3ccc(C)cc3)ccc2N2CCOCC2)cc1 [TCMDC-143313] | -207.804 | -855.253 | -1487.77 | 0.2 | – | – | – | – | 72.0 | 72 | 72 | 72 | 72 | 50 | 0.2058 | -207.8 | -855.3 | -1487.8 | 23.7828 | – | AM/CELL NORM (Time 4, figure 4 A): -12.1404; AM/CELL NORM (Time 24, figure 4 A): -266.8; AM/CELL NORM (Time 48, figure 4 A): -1156.6; AM/CELL NORM (Time 72, figure 4 A): -1899.09 |
| COc1cc(NC(=O)Nc2cccc(CNC(=O)OC3CCCCC3)c2)ccc1-c1cnco1 [TCMDC-143376] | -229.157 | -76.0857 | -0.198 | 0.6 | – | – | – | – | 24.0 | 72 | 24 | 72 | 72 | 50 | 0.6173 | -229.2 | -76.1 | -0.2 | 42.5513 | – | AM/CELL NORM (Time 4, figure 4 A): -2.926; AM/CELL NORM (Time 24, figure 4 A): -229.157; AM/CELL NORM (Time 48, figure 4 A): -76.0857; AM/CELL NORM (Time 72, figure 4 A): -16.3246 |
